Structures are written as SMILES.

The melting point is the temperature of the solid-liquid transition. On to `Cc1c(NC(=O)c2ccc(OCC3CCCO3)cc2)ccc2cc(CNC3CCC(O)CC3)cnc12` (stereo not drawn), for which the melting point is 155 °C.
The figure for `O=C(O)c1cnn(-c2cccc(C(F)(F)F)c2)c1` is 145 to 148 °C.
The same measure for `CCOC(=O)C1=C(C)NC(COCc2cccnc2)=C(C(=O)OCC)C1c1ccccc1[N+](=O)[O-]` (stereo not drawn): 133 to 135 °C; for `CCCCCCCCCCC/C=C\c1ccc(C=CC(=O)OC)cc1`: 60 to 62 °C.
The figure for `COc1cc(C)cc(Sc2cccc(N)c2C#N)c1` is 108 to 110 °C; for `COc1ccc(N2CCN(c3c(C)c(C)c4c(c3C)C(O)(c3ccc(C(F)(F)F)cc3)C(C)(C)O4)CC2)cc1` (stereo not drawn) it is 181 to 183 °C.
`Cc1ccc(-c2cc(Cl)c3ccccc3n2)cc1` yielded a melting point of 75 to 77 °C.
The compound `CC(C)N(c1cccc2cc(C(N)=S)[nH]c12)S(=O)(=O)c1cccs1` showed a melting point of 204 to 205 °C.
The same measure for `CSc1ccc(-c2cc(C(F)F)nn2-c2ccc(S(N)(=O)=O)cc2)cc1`: 157 to 158 °C; for `CC(C)(C)c1cc(C(=O)NCCOC(=O)c2cc(C(C)(C)C)c(O)c(C(C)(C)C)c2)cc(C(C)(C)C)c1O`: 185 to 187 °C; for `COc1ccc(S(N)(=O)=O)cc1C(N)=O`: 178 °C.
The figure for `Cc1c(CO)c(Cl)nc2ccccc12` is more than 260 °C.
`Cc1ccc(S(=O)(=O)OCC2CN(C)c3ccc(Cl)cc3O2)cc1` (stereo not drawn) came in with a melting point of 65 to 67 °C.
The same measure for `O=C(NCc1ccc(Cl)cc1)c1cn(CCCOC2CCCCO2)c2c(F)cc(CO)cc2c1=O` (stereo not drawn): 148 to 150 °C; for `O=C(CCN1CCN(c2ccccc2)CC1)NCC(=O)c1ccccc1`: 126 °C; for `CCCCC(Cn1cncn1)(C(N)=O)c1ccc(Cl)cc1Cl` (stereo not drawn): 170 to 172 °C.
The compound `O=C(O)c1nc(NCC(c2ccccc2)c2ccccc2)c2nc[nH]c2n1` registered a melting point of 241 to 249 °C.
The figure for `CC(C)c1cc(-c2c3ccccc3c(Br)c3sc4ccccc4c23)cc(C(C)C)c1O` is 189 to 190 °C.
The figure for `CC(C)(C)c1cc(C(=O)c2ccc(O)cc2)cc(C(C)(C)C)c1O` is 188 to 190 °C; for `N#Cc1ccc(CC(=O)Nc2cccc(C(=O)NCCC(=O)OCc3ccccc3)c2)cc1` it is 98 to 99 °C.
The same measure for `CCOC(=O)C1=Cc2cccc(N3CCCC3=O)c2OCC1`: 64 to 66 °C; for `CON=C(C(=O)OC)c1c(C)cccc1CBr`: 76 to 78 °C; for `CC12CC(C#N)(CC1=O)C(C)(C)O2` (stereo not drawn): 74 to 76 °C.
In turn, `CCCNC(=O)C(CC)Cc1ccc2c(c1)c(Cc1ccc(C(=O)NS(=O)(=O)c3ccccc3C)cc1OC)cn2CCC` (stereo not drawn) had a melting point of 93 to 105 °C.
The figure for `O=C(O)C(O)=CC(=O)c1cc(Cc2ccc(F)cc2F)cn(Cc2ccccc2F)c1=O` is 187 to 189 °C; for `O=P1(c2ccccc2)c2ccccc2CN1Cc1ccccc1` (stereo not drawn) it is 99 to 101 °C; for `CCN(CC)CCCn1[nH]c(C)c2c(=O)nc(-c3ccncc3)nc1-2` it is 164 to 166 °C.
The figure for `CCCCCCCCCCCCCCCc1ccc(-c2nc(-c3ccccc3Cl)nn2C)cc1` is 62 to 65 °C; for `CN(C)CCN(CCN(C)C)c1cccc(-c2nc3cc(Cl)c(Cl)cc3[nH]2)c1` it is 129 to 132 °C.
The figure for `CC(C)(C)C(NC(=O)c1ccc(-c2ccco2)cc1)NC(=NC#N)Nc1cccnc1` (stereo not drawn) is 181 to 182 °C.
Take `CC(C)(C)C(=C=CCl)c1ccccc1-c1ccccc1`: the melting point was 85 to 86 °C.
The figure for `CCOCc1nc2c(N)nc(C)c(C)c2n1NC1CCN(S(C)(=O)=O)CC1` is 127 to 131 °C.
`C[C@H]1[C@H](NC(=O)OC(C)(C)C)C(=O)N1OCC(=O)OCc1ccc([N+](=O)[O-])cc1` had a melting point of 71 to 75 °C.
The figure for `CCOC(=O)c1cnn2c1nc(NC)c1cnc3c(cnn3CC)c12` is 321 to 322 °C; for `CCC(CC)Cn1nc(-c2ccc(O)cc2O)c2cccc(C(F)(F)F)c21` it is 89 to 90 °C.
The figure for `CCn1ncc2c(Cl)c3c(nc21)C(O)c1ccccc1CC3` (stereo not drawn) is 128 to 130 °C; for `CC[C@H](C)CCCCCOc1ccc(C(=O)Oc2ccc(O)cc2)cc1` it is 75 °C.
The same measure for `COCCCN1C(=O)CC(=O)Nc2ccccc21`: 137 to 138 °C; for `CNC(=O)On1cc(Cl)cn1`: 125 °C; for `O=C(Nc1cnc2[nH]ccc2c1)c1cc2cc(F)ccc2n1Cc1cccc(F)c1`: 266 to 267 °C.
`CC(C)N1CNS(=O)(=O)c2sc(Cl)cc21` displayed a melting point of 100 to 102 °C.
The compound `O=C1NC(OC(=O)c2ccccc2)C2=C1c1ccc(Cl)cc1C(c1ccccc1Cl)=NC2` (stereo not drawn) yielded a melting point of 140 to 142 °C.
In the case of `Cc1csc(C(=O)CCl)c1`, the melting point is 76 to 77 °C.
The same measure for `CCCOc1c(OC)cc(NC(C)CCCN2C(=O)c3ccccc3C2=O)c2ncccc12` (stereo not drawn): 140 to 143 °C; for `CCOC(=O)c1c(C(C)(C)C)oc(-c2ccccc2)c1-c1ccc(F)cc1`: 93 to 94 °C; for `Nc1c(C(=O)c2cccc(S(N)(=O)=O)c2)[nH]c2cc(Cl)ccc12`: 125 to 127 °C.
The figure for `COc1nc(NC(=O)NS(=O)(=O)c2sccc2C(F)=C(F)C(F)(F)F)nc(OC)n1` is 149 to 153 °C; for `CCc1ccc(C(O)COc2ccc(CC3SC(=O)NC3=O)cc2)nc1` (stereo not drawn) it is 129 to 130 °C.
The figure for `COc1ccc(Nc2ncccc2NS(=O)(=O)c2ccc(O)cc2)cc1` is 214 to 216 °C.
In turn, `Cn1cc(-c2cc3cccnc3[nH]2)c2cc(C(=O)O)ccc21` registered a melting point of more than 300 °C.
The same measure for `CC(=O)N1CCN(CC(=O)Nc2nc(-c3ccccc3)c(-c3ccc(=O)n(C(C)C)n3)s2)CC1`: 220 to 222 °C; for `Nc1ncc(-c2noc(-c3cnn4c(C(F)(F)F)cc(-c5ccc(C(F)(F)F)c(Cl)c5)nc34)n2)cn1`: 279 °C.
For the compound `NC(=O)C1(N2C(=O)c3cccc(Br)c3C2=O)CCCCC1`, the melting point was 199 to 200 °C.
The same measure for `O=C1CCCCCCC1F` (stereo not drawn): 48.1 to 49.8 °C.
The figure for `O=C([C@@H]1CCCN1S(=O)(=O)c1ccc2ccccc2c1)N1C[C@@H](c2ccc(Cl)cc2)Sc2ccccc21` is 147 to 151 °C.
The figure for `O=C(CCO)Nc1cccc(-c2ccc3c(c2)C(c2ccc(Cl)cc2Cl)CC3)c1` (stereo not drawn) is 202 to 203 °C.
`CC(C)c1cccc(C(C)C)c1NC(=O)NC1CCC(C(C)(C)C)CC1` (stereo not drawn) returned a melting point of 264 to 266 °C.
As to `CCCN(CCC)c1nsc(NC(=O)NC)c1C(N)=O`, the melting point fell in the range of 168 to 169 °C.
The same measure for `COc1cc2ncnc(N3CCc4ccc(N)cc43)c2cc1OC`: 215 to 218 °C; for `N#Cc1oc(-c2ccc(Cl)cc2)c2ccccc12`: 128 to 130 °C.
The same measure for `COc1ccc(C(=O)Nc2ccc(-n3nc(C(F)(F)F)cc3C(F)(F)F)cc2)cc1`: 205 to 207 °C.
The figure for `Cn1c(CO)ncc(OCc2ccccc2)c1=O` is 83 to 84 °C.
Take `O=C(Nc1nc(-c2ccccc2)cs1)Nc1nc(-c2ccccc2)cs1`: the melting point lay in the range of 285 to 287 °C.
The figure for `Cn1cnc2c(Nc3ccc(Cl)cc3)nc(-c3ccccn3)nc21` is 185 to 190 °C.
The same measure for `CCN(CC)C(=O)Nc1ccc2c(c1)C(c1ccccc1F)=NCC(=O)N2C`: 138 to 139 °C; for `CCc1nnc(C(CCN2CC3CCC2CC3)(c2ccccc2)c2ccccc2)o1`: 96 to 98.5 °C.
The figure for `Cc1cc(C=O)c(OCCCCCCCCc2ccccc2)c(C=O)c1` is 59 °C; for `CCCc1cc(C(O)=S)cc([N+](=O)[O-])c1-c1ccccc1` it is 178 to 180 °C; for `O=C(OCc1cncs1)Oc1ccc([N+](=O)[O-])cc1` it is 62 to 64 °C.
Turning to `C#CCn1c(Br)c(C[C@H](NC(C)=O)C(=O)OC)c2c(Br)c(OC)c(Br)cc21`, the melting point was in the range of 284 to 285 °C.
The figure for `CC1(C)C(=O)C(c2ccc(S(C)(=O)=O)cc2)=C1c1ccc(S(C)(=O)=O)cc1` is 212 °C.
The figure for `CCOC(=O)CC(=O)C=Cc1ccc([N+](=O)[O-])cc1` is 116 °C; for `CS(=O)(=O)Nc1ccc(-n2nc(C(F)(F)F)nc2-c2ccc(S(C)(=O)=O)cc2)cc1` it is 188 °C.
`O=c1[nH]c2cccc(Cl)c2c(=O)n1CCCN1CC=C(c2ccc(Cl)cc2)CC1` displayed a melting point of 190 to 194 °C.
The same measure for `O=S(=O)(F)Cc1ccc(F)c(Oc2ccccc2)c1`: 59.5 to 61.5 °C; for `COc1ccc2c(c1)C13CCN(CC4CC4)C(C2)C1(Cc1ccccc1)CCC1(C3)OCCO1` (stereo not drawn): 165 to 167 °C; for `Clc1cc(-c2cc3ccccc3s2)nc2ccccc12`: 142 to 145 °C.
The figure for `COc1cc2c(c(C(C)C)c1OC)C(=O)NS2(=O)=O` is 186 to 188 °C; for `Cc1cc(Br)cc(Br)c1NC(=N)Nc1c(C)cc([N+](=O)[O-])cc1Br` it is 193 to 195 °C.
The same measure for `O=c1ncc(Cl)cn1CC=CCl`: 102 to 104 °C.
`O=C(OCCCCCCCCCCCCCCCCOc1ccc(-c2cccc(F)c2F)cc1)C(CCCCCCO)CCCCCCO` registered a melting point of 45.2 to 48.8 °C.
The same measure for `COc1ccc(N2CCN(c3c(C)c(C)c4c(c3C)C(O)(CCc3ccccc3)C(C)(C)O4)CC2)cc1` (stereo not drawn): 124 to 126 °C.
For the compound `NCc1ccc(-c2csc(N)n2)s1`, the melting point came out at 189 °C.
The same measure for `CCCCc1nc(SC)c(C(=O)O)n1Cc1ccc(-c2nc3ccccn3c2-c2nnn[nH]2)cc1`: 160 °C; for `CN(C)CC1COC2(CCN(c3nc4c(cc3F)C=C(C(=O)O)CN4c3ccc(F)cc3F)C2)O1` (stereo not drawn): 154 to 155 °C; for `CNC(=O)c1cc(-c2ccc(OC)cc2)nn(CC(=O)Nc2ccc(SC)cc2)c1=O`: 231 to 232 °C.
In the case of `CNS(=O)(=O)c1ccccc1C`, the melting point was 62 to 64 °C.
The same measure for `CCOc1nc(O)ns1`: 98 °C.

Source of the values: a melting point compilation (Tetko et al.; mined from patent text by program, amines drawn as free bases though some values may be those of a salt).
